The results in this text go back to patent US11638707B2, “Substituted amino triazoles useful as chitinase inhibitors” (Molecure S.A., priority 2019, dated 2023).

Structures can show the parent of a compound that is named as a salt.

In one data set the target is recombinant human CHIT1 (Homo sapiens (Human), UniProt Q13231). The data set can be described thus: Human CHIT1 activity assay. The following applies: recombinant human CHIT1, citrate buffer pH 5.2, 37° C., 60 minutes; read-out: hCHIT1, IC50. The data set is classed as biochemical. The protocol: (§1) The assay was run in the 96-well plate format, each reaction in the total volume of 100 μL. 4-methylumbelliferyl β-D-N,N′,N″-triacetylchitotriose was used as a substrate for the enzyme. Upon hydrolysis by CHIT1, the substrate releases 4-methylumbelliferyl (4MU) that, when ionized in basic pH, emits fluorescence at 460 nm. Briefly, 40 μL of a substrate was added to each well, followed by 10 μL of compound dilution and 50 μL of CHIT1 recombinant enzyme solution. The reaction was carried out in citrate buffer, pH 5.2, in the dark, at 37° C. for 60 minutes with shaking. […] The IC50 values were calculated using GraphPad Prism.
recombinant human CHIT1, sequence (Q13231 22-466): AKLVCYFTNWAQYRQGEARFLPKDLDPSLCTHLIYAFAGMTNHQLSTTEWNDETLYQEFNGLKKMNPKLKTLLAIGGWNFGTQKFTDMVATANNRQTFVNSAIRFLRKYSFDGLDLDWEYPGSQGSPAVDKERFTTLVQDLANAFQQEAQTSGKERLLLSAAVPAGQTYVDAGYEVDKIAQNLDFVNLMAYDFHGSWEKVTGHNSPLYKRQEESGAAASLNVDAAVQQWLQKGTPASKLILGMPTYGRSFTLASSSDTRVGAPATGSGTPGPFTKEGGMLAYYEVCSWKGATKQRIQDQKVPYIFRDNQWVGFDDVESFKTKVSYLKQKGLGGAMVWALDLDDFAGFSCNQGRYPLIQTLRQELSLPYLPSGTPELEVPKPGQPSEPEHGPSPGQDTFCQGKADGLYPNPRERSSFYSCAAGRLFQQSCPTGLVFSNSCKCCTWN

The next data set addresses recombinant human AMCase (Homo sapiens (Human), UniProt Q9BZP6). The data set can be described thus: Human AMCase activity assay. The data set is classed as biochemical. The following applies: citrate buffer pH 5.2, 37° C., 60 minutes, read-out: hAMCase, IC50. The protocol: as §1, with “4-Methylumbelliferyl B-D-N,N′-diacetylchitobioside hydrate” for “4-methylumbelliferyl β-D-N,N′,N″-triacetylchitotriose”, “AMCase,” for “CHIT1,”, “hAMCase” for “CHIT1”

The target in a further data set is hERG channel (Homo sapiens (Human), UniProt Q12809). The data set can be described thus: Human ERG channel binding assay (fluorescence polarization). Particulars: Table 1; tracer displacement, 4 h at room temperature. The protocol: Human ERG Channel Binding Assay
hERG channel, sequence (Q12809 whole entry): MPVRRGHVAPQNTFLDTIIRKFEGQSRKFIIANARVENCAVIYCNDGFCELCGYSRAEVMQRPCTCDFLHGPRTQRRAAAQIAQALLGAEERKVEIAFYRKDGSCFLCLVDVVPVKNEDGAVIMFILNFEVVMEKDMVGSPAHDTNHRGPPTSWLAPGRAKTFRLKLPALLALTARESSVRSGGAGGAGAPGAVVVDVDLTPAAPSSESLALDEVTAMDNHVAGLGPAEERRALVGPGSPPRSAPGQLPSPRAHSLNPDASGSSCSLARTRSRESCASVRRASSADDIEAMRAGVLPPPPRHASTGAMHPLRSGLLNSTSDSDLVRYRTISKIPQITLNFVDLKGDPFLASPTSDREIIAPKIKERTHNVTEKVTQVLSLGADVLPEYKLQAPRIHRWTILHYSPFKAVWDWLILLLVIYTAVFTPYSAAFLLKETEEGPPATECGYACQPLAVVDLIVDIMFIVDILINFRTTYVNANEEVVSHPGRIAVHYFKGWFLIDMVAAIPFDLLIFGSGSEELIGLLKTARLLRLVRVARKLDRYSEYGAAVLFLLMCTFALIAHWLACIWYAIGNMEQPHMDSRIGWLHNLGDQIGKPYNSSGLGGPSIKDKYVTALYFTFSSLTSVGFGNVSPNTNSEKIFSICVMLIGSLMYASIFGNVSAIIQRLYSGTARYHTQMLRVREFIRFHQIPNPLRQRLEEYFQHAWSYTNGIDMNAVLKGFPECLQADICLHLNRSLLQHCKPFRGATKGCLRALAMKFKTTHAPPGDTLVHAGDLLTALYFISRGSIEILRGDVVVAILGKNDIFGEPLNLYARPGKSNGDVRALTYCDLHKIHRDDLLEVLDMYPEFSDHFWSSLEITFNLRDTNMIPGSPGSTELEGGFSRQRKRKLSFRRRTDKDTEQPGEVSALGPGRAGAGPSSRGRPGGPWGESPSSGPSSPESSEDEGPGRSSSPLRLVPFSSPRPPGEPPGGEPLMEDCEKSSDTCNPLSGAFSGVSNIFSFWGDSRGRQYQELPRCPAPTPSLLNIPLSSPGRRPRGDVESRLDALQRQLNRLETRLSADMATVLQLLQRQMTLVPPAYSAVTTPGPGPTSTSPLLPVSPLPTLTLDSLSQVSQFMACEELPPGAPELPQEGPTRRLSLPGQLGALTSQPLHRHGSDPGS
Fluorescence polarization assay based on the principle of fluorescence polarization where a red-shifted fluorescent tracer is displaced from the hERG channel by compounds that bind to the channel was used to establish the binding of the compounds to hERG channel. […] Briefly, the compounds in serial dilutions were incubated with a membrane fraction containing hERG channel protein and a high-affinity red fluorescent hERG channel ligand in black 384-well plate. […] The IC50 values were calculated using GraphPad Prism.
(In general: Polarisation of emitted light reports the rotation of a fluorescent probe.)

recombinant human AMCase, sequence (Q9BZP6 22-476): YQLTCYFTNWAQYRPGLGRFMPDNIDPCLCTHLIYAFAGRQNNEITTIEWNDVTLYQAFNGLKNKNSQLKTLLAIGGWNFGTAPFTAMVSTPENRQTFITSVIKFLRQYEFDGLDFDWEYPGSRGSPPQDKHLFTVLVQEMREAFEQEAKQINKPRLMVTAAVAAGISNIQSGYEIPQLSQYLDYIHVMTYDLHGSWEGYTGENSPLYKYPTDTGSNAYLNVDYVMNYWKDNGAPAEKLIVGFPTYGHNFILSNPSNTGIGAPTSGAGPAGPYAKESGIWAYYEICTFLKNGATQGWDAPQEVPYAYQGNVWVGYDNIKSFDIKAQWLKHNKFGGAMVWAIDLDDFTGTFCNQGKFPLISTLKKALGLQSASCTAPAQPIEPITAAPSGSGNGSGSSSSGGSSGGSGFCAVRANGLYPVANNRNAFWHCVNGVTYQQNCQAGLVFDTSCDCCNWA

Usually IC50 stands for the concentration at which inhibition is half-maximal. For `Nc1nnc(N2CCC(N3C[C@H](CC(F)(F)F)OC[C@@H]3Cc3ccc(Cl)cc3)CC2)[nH]1` [Example 14, 5-(4-((2S,5S)-5-(4-chlorobenzyl)-2-(2,2,2-trifluoroethyl)morpholino)piperidin-1-yl)-4H-1,2,4-triazol-3-amine 2,2,2-trifluoroacetate], the half-maximal inhibitory concentration (IC50) at recombinant human CHIT1 is under 100 nM; on recombinant human AMCase it was under 100 nM; at hERG channel, over 100000 nM.
On to `CC(F)[C@H]1CN(C2CCN(c3nnc(N)[nH]3)CC2)[C@@H](Cc2ccc(Cl)cc2)CO1` (relative stereo) [Example 20, 5-(4-((2R,5S)-5-(4-chlorobenzyl)-2-(1-fluoroethyl)morpholino)piperidin-1-yl)-4H-1,2,4-triazol-3-amine 2,2,2-trifluoroacetate], for which the IC50 at recombinant human CHIT1 was under 100 nM; at recombinant human AMCase, under 100 nM; on hERG channel, over 100000 nM.
For `Nc1nnc(N2CCC(N3C[C@H](CN4CC(F)C4)OC[C@@H]3Cc3ccc(Cl)cc3)CC2)[nH]1` [Example 37, 5-(4-((2S,5S)-5-(4-chlorobenzyl)-2-((3-fluoroazetidin-1-yl)methyl)morpholino)-piperidin-1-yl)-4H-1,2,4-triazol-3-amine 2,2,2-trifluoroacetate], the IC50 at recombinant human CHIT1 was under 100 nM; on recombinant human AMCase, under 100 nM; at hERG channel, 25000 to 100000 nM.
On to `Nc1nnc(N2CCC(N3C[C@@H]4COCCN4C[C@@H]3Cc3ccc(Cl)cc3)CC2)[nH]1` [Example 73, 5-(4-((7S,9aR)-7-(4-chlorobenzyl)hexahydropyrazino[2,1-c][1,4]oxazin-8(1H)-yl)piperidin-1-yl)-4H-1,2,4-triazol-3-amine hydrochloride], for which the IC50 was 100 to 1000 nM at recombinant human CHIT1, under 100 nM on recombinant human AMCase and 1000 to 10000 nM at hERG channel.
For `Nc1nnc(N2CCC(N3C[C@H](CF)OC[C@@H]3Cc3ccc(Br)cc3)CC2)[nH]1` [Example 76, 5-(4-((2R,5S)-5-(4-bromobenzyl)-2-(fluoromethyl)morpholino)piperidin-1-yl)-4H-1,2,4-triazol-3-amine 2,2,2-trifluoroacetate] the same measures were under 100 nM, under 100 nM and over 100000 nM.
For the molecule `C[C@@H](O)[C@H]1CN(C2CCN(c3nnc(N)[nH]3)CC2)[C@@H](Cc2ccc(Cl)cc2)CO1` [Example 67, (R)-1-((2R,5S)-4-(1-(5-amino-4H-1,2,4-triazol-3-yl)piperidin-4-yl)-5-(4-chlorobenzyl)morpholin-2-yl)ethanol 2,2,2-trifluoroacetate], the half-maximal inhibitory concentration (IC50) on recombinant human CHIT1 was under 100 nM; at recombinant human AMCase it was under 100 nM; at hERG channel, over 100000 nM.
As to `N#CC[C@H]1CN(C2CCN(c3nnc(N)[nH]3)CC2)[C@@H](Cc2ccc(Cl)cc2)CO1` [Example 6, 2-((2S,5S)-4-(1-(5-amino-4H-1,2,4-triazol-3-yl)piperidin-4-yl)-5-(4-chlorobenzyl)-morpholin-2-yl)acetonitrile 2,2,2-trifluoroacetate], the IC50 on recombinant human CHIT1 was under 100 nM; at recombinant human AMCase, under 100 nM; on hERG channel it was over 100000 nM.
With `CNS(=O)(=O)CCNC(=O)[C@H]1CN(C2CCN(c3nnc(N)[nH]3)CC2)[C@@H](Cc2ccc(Cl)cc2)CO1` [Example 46, (2R,5S)-4-(1-(5-amino-4H-1,2,4-triazol-3-yl)piperidin-4-yl)-5-(4-chlorobenzyl)-N-(2-(N-methylsulfamoyl)ethyl)morpholine-2-carboxamide 2,2,2-trifluoroacetate], the IC50 at recombinant human CHIT1 was under 100 nM; at recombinant human AMCase, under 100 nM; at hERG channel it was over 100000 nM.
On to `CCC(O)(CC)[C@H]1CN(C2CCN(c3nnc(N)[nH]3)CC2)[C@@H](Cc2ccc(Cl)cc2)CO1` [Example 68, 3-((2R,5S)-4-(1-(5-amino-4H-1,2,4-triazol-3-yl)piperidin-4-yl)-5-(4-chlorobenzyl)-morpholin-2-yl)pentan-3-ol 2,2,2-trifluoroacetate], for which the IC50 at recombinant human CHIT1 was under 100 nM; at recombinant human AMCase it was under 100 nM; at hERG channel, 25000 to 100000 nM.
`N#Cc1cnn(C[C@H]2CN(C3CCN(c4nnc(N)[nH]4)CC3)[C@@H](Cc3ccc(Cl)cc3)CO2)c1` [Example 8, 1-(((2R,5S)-4-(1-(5-amino-4H-1,2,4-triazol-3-yl)piperidin-4-yl)-5-(4-chlorobenzyl)-morpholin-2-yl)methyl)-1H-pyrazole-4-carbonitrile 2,2,2-trifluoroacetate]: the figures for the IC50 at recombinant human CHIT1, on recombinant human AMCase and at hERG channel were under 100 nM, under 100 nM and 25000 to 100000 nM, respectively.
Turning to `Nc1nnc(N2CCC(N3C[C@H](CN4CC[C@H](O)C4)OC[C@@H]3Cc3ccc(Cl)cc3)CC2)[nH]1` [Example 30, (S)-1-(((2S,5S)-4-(1-(5-amino-4H-1,2,4-triazol-3-yl)piperidin-4-yl)-5-(4-chlorobenzyl)morpholin-2-yl)methyl)pyrrolidin-3-ol 2,2,2-trifluoroacetate], the IC50 at recombinant human CHIT1 is 100 to 1000 nM; on recombinant human AMCase, under 100 nM; on hERG channel it was over 100000 nM.
Take `CC1CN(C(=O)[C@H]2CN(C3CCN(c4nnc(N)[nH]4)CC3)[C@@H](Cc3ccc(Cl)cc3)CO2)C1` [Example 61, ((2R,5S)-4-(1-(5-amino-4H-1,2,4-triazol-3-yl)piperidin-4-yl)-5-(4-chlorobenzyl)-morpholin-2-yl)(3-methylazetidin-1-yl)methanone 2,2,2-trifluoroacetate]: the half-inhibitory concentration (IC50) is under 100 nM at recombinant human CHIT1, under 100 nM on recombinant human AMCase and over 100000 nM at hERG channel.
For the molecule `Nc1nnc(N2CCC(N3C[C@H]([C@H](O)C(F)(F)F)OC[C@@H]3Cc3ccc(Cl)cc3)CC2)[nH]1` [Example 16, (S)-1-((2R,5S)-4-(1-(5-amino-4H-1,2,4-triazol-3-yl)piperidin-4-yl)-5-(4-chloro-benzyl)morpholin-2-yl)-2,2,2-trifluoroethanol 2,2,2-trifluoroacetate], the IC50 at recombinant human CHIT1 is under 100 nM; on recombinant human AMCase it was under 100 nM; at hERG channel it was over 100000 nM.
With `Nc1nnc(N2CCC(N3C[C@H](Cn4cncn4)OC[C@@H]3Cc3ccc(Cl)cc3)CC2)[nH]1` [Example 27, 5-(4-((2R,5S)-2-((1H-1,2,4-triazol-1-yl)methyl)-5-(4-chlorobenzyl)morpholino)piperidin-1-yl)-4H-1,2,4-triazol-3-amine 2,2,2-trifluoroacetate], the IC50 at recombinant human CHIT1 is under 100 nM; at recombinant human AMCase it was under 100 nM; at hERG channel it was over 100000 nM.
Take `CC1CN(C[C@H]2CN(C3CCN(c4nnc(N)[nH]4)CC3)[C@@H](Cc3ccc(Cl)cc3)CO2)C1` [Example 51, 5-(4-((2S,5S)-5-(4-chlorobenzyl)-2-((3-methylazetidin-1-yl)methyl)morpholino)-piperidin-1-yl)-4H-1,2,4-triazol-3-amine 2,2,2-trifluoroacetate]: the half-inhibitory concentration (IC50) was 100 to 1000 nM at recombinant human CHIT1, under 100 nM on recombinant human AMCase and 25000 to 100000 nM at hERG channel.
In the case of `Nc1nnc(N2CCC(N3C[C@H](C(=O)N4CCC(F)(F)CC4)OC[C@@H]3Cc3ccc(Cl)cc3)CC2)[nH]1` [Example 53, ((2R,5S)-4-(1-(5-amino-4H-1,2,4-triazol-3-yl)piperidin-4-yl)-5-(4-chlorobenzyl)-morpholin-2-yl)(4,4-difluoropiperidin-1-yl)methanone 2,2,2-trifluoroacetate], the half-inhibitory concentration (IC50) on recombinant human CHIT1 is 100 to 1000 nM; on recombinant human AMCase it was under 100 nM; at hERG channel, 25000 to 100000 nM.
Consider `CN(C)C(=O)OC[C@H]1CN(C2CCN(c3nnc(N)[nH]3)CC2)[C@@H](Cc2ccc(Cl)cc2)CO1` [Example 48, ((2R,5S)-4-(1-(5-amino-4H-1,2,4-triazol-3-yl)piperidin-4-yl)-5-(4-chlorobenzyl)morpholin-2-yl)methyl dimethylcarbamate 2,2,2-trifluoroacetate], for which the results for the half-maximal inhibitory concentration (IC50) on recombinant human CHIT1, on recombinant human AMCase and at hERG channel were under 100 nM, under 100 nM and 25000 to 100000 nM, respectively.
As for `Nc1nnc(N2CCC(N3C[C@H](COCC(F)(F)F)OC[C@@H]3Cc3ccc(Cl)cc3)CC2)[nH]1` [Example 39, 5-(4-((2R,5S)-5-(4-chlorobenzyl)-2-((2,2,2-trifluoroethoxy)methyl)morpholino)-piperidin-1-yl)-4H-1,2,4-triazol-3-amine 2,2,2-trifluoroacetate], the IC50 on recombinant human CHIT1 was under 100 nM; at recombinant human AMCase, under 100 nM; at hERG channel, 1000 to 10000 nM.
Take `Nc1nnc(N2CCC(N3C[C@H](CN4CCC(F)(F)C4)OC[C@@H]3Cc3ccc(Cl)cc3)CC2)[nH]1` [Example 29, 5-(4-((2S,5S)-5-(4-chlorobenzyl)-2-((3,3-difluoropyrrolidin-1-yl)methyl)-morpholino)piperidin-1-yl)-4H-1,2,4-triazol-3-amine 2,2,2-trifluoroacetate]: the IC50 on recombinant human CHIT1 is under 100 nM; at recombinant human AMCase it was under 100 nM; at hERG channel, over 100000 nM.
